Where two headings read alike, the source gives them in different places.
Legend:
[1] = biological target: BTK (Homo sapiens (Human), UniProt Q06187); experiment: Omnia assay for potency assessment against BTK; assay type: biochemical; conditions: [BTK]=5 nM, Omnia assay; read-out: BTK Inhibition (IC50)
Description: The modified BTK-optimized reagent conditions for the above protocol are:
[BTK]=5 nM, [ATP]=[…], [Y5-Sox]=[…] (ATP KMapp˜[…]).

[2] = biological target: EGFR-WT (Homo sapiens (Human), UniProt P00533); experiment: Omnia assay for potency assessment against EGFR (WT)
[3] = read-out: EGFR (wild type inhibition), EGFR wild type

Chain of BTK (Q06187 whole entry): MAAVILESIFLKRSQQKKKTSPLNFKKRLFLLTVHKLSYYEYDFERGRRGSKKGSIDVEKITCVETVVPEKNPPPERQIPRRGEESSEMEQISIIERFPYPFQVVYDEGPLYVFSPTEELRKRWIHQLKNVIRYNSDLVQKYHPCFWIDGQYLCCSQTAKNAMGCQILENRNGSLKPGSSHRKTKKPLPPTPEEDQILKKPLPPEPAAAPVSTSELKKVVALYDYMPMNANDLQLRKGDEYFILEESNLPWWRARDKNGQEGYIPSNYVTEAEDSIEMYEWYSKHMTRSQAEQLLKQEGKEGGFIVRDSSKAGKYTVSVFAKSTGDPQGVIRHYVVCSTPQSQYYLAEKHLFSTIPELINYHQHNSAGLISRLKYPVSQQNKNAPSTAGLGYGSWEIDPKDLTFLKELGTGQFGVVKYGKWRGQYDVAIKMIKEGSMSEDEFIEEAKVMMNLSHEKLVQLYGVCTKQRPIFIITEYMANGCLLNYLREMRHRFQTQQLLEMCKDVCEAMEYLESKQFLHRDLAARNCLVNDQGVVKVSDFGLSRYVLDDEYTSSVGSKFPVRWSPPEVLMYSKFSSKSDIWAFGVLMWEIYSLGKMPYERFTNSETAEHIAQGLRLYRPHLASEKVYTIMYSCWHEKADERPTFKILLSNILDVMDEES

Compound | IC50 [1] [nM] | IC50 [2, 3] [nM] | IC50 [2] [nM]
C=CC(=O)Nc1cccc(Nc2nc(NCc3ccc(OC)cc3)ncc2F)c1 [Compound I-241, N-(3-(5-fluoro-2-(4-methoxybenzylamino)pyrimidin-4-ylamino)phenyl)acrylamide] | 1000 to 10000 | 1000 to 10000 | 
Cc1cccc(Nc2nc(Nc3cccc(NC(=O)/C=C/CN4C[C@@H](C)N[C@@H](C)C4)c3)ncc2F)c1 [Compound I-119, (E)-4-((3R,5S)-3,5-dimethylpiperazin-1-yl)-N-(3-(5-fluoro-4-(m-tolylamino)pyrimidin-2-ylamino)phenyl)but-2-enamide] | 10 to 100 |  | 100 to 1000
CC(C)=CC(=O)c1cccc(Nc2nc(Nc3ccccc3)ncc2C)c1 [Compound I-232, 3-methyl-1-(3-(5-methyl-2-(phenylamino)pyrimidin-4-ylamino)phenyl)but-2-en-1-one] | 10 to 100 | 1000 to 10000 | 
C=CC(=O)Nc1cccc(Nc2nc(Nc3ccccc3)ncc2C(=O)NC2CC2)c1 [Compound I-221, 4-(3-acrylamidophenylamino)-N-cyclopropyl-2-(phenylamino)pyrimidine-5-carboxamide] | 10 to 100 |  | 10 to 100
C=CC(=O)N1CCOc2ccc(Nc3ncc(F)c(Nc4ccc(OCc5ccccn5)c(Cl)c4)n3)cc21 [Compound I-343, 1-(6-(4-(3-chloro-4-(pyridine-2-ylmethoxy)phenylamino)-5-fluoropyrimidin-2-ylamino)-2H-benzo[b][1,4]oxazin-4(3H)-yl)prop-2-en-1-one] | 10 to 100 |  | 100 to 1000
C=CC(=O)Nc1cccc(Nc2nc(Nc3cccc(OCC4CCN(C)CC4)c3)ncc2F)c1 [Compound I-82, N-(3-(5-fluoro-2-(3-((1-methylpiperidin-4-yl)methoxy)phenylamino)pyrimidin-4-ylamino)phenyl)-acrylamide] | < 10 | < 10 | 
Cc1cccc(Nc2nc(Nc3cccc(NC(=O)/C=C/CN4C[C@@H]5C[C@H]4CN5)c3)ncc2F)c1 [Compound I-101, (E)-4-((1S,4S)-2,5-diazabicyclo[2.2.1]heptan-2-yl)-N-(3-(5-fluoro-4-(m-tolylamino)pyrimidin-2-ylamino)phenyl)but-2-enamide] | 10 to 100 |  | 10 to 100
C=CC(=O)Nc1cccc(Nc2nc(NC3CCCN(C(C)=O)C3)ncc2F)c1 (centres unmarked) [Compound I-238, N-(3-(2-(1-acetylpiperidin-3-ylamino)-5-fluoropyrimidin-4-ylamino)phenyl)acrylamide] | 1000 to 10000 | > 10000 | 
C=CC(=O)N1Cc2ccc(Nc3nc(Nc4cccc(OC)c4)ncc3C(F)(F)F)cc2C1 [Compound I-132, 1-(5-(5-trifluoromethyl-2-(3-methoxyphenylamino)pyrimidin-4-yl)amino-1,3-dihydroisoindol-2-yl)2-propen-1-one] | < 10 |  | 10 to 100
C=CC(=O)Nc1cccc(Nc2nc(Nc3ccc(Cl)c(O[C@@H]4CCOC4)c3)ncc2F)c1 [Compound I-341, (R)—N-(3-(2-(4-chloro-3-(tetrahydrofuran-3-yloxy)phenylamino)-5-fluoropyrimidin-4-ylamino)phenyl)acrylamide] | < 10 |  | 100 to 1000
C=CC(=O)N1CCC[C@H](Oc2nc(Nc3ccc(OC)nc3)ncc2F)C1 [Compound I-193, (S)-1-(3-(5-fluoro-2-(6-methoxypyridin-3-ylamino)pyrimidin-4-yloxy)piperidin-1-yl)prop-2-en-1-one] | 100 to 1000 | 1000 to 10000 | 
C=CC(=O)N1CCC[C@H](Oc2nc(Nc3cccc(OC)c3)ncc2F)C1 [Compound I-179, (S)-1-(3-(5-fluoro-2-(3-methoxyphenylamino)pyrimidin-4-yloxy)piperidin-1-yl)prop-2-en-1-one] | 100 to 1000 |  | > 10000
C/C=C/C(=O)OCc1ccc(Nc2nc(Nc3ccccc3)ncc2C)cc1 [Compound I-60, (E)-4-(5-methyl-2-(phenylamino)pyrimidin-4-ylamino) benzyl but-2-enoate] | 100 to 1000 | 1000 to 10000 | 
C=CC(=O)N1CCC[C@@H](Nc2nc(Nc3ccc(OCCOC)cc3)ncc2F)C1 [Compound I-345] | < 10 |  | 100 to 1000
C=CC(=O)N1CCC[C@H](Nc2nc(Nc3cccc(OC)c3)ncc2F)C1 [Compound I-196, (S)-1-(3-(5-fluoro-2-(3-methoxyphenylamino)pyrimidin-4-ylamino)piperidin-1-yl)prop-2-en-1-one] | 10 to 100 | 1000 to 10000 | 
C=CC(=O)Nc1cccc(Nc2nc(Nc3ccc(OC(C)(C)CO)cc3)ncc2F)c1 [Compound I-93, N-(3-(5-fluoro-2-(4-(1-hydroxy-2-methylpropan-2-yloxy)phenylamino)pyrimidin-4-ylamino)phenyl)acrylamide] | < 10 |  | 10 to 100
(E)-4-(dimethylamino)-N-(3-(5-methyl-4-(m-tolylamino)pyrimidin-2-ylamino)phenyl)but-2-enamide [Compound I-360] | < 10 | < 10 | 

Compound | IC50 [1] [nM] | IC50 [2, 3] [nM] | IC50 [2] [nM]
C=CC(=O)Nc1cccc(Nc2nc(Nc3ccc(OCCOC)c(F)c3)ncc2C(F)(F)F)c1 [Compound I-352, N-(3-(5-trifluoromethyl-2-(3-fluoro-4-(2-methoxyethoxy)phenylamino)pyrimidin-4-ylamino)phenyl)acrylamide] | < 10 | < 10 | 
C=C(C)C(=O)Cc1cccc(Nc2nc(Nc3ccc(OCCOC)c(F)c3)ncc2F)c1 [Compound I-328, 1-(3-(5-fluoro-2-(3-fluoro-4-(2-methoxyethoxy)phenylamino)pyrimidin-4-ylamino)phenyl)-3-methylbut-3-en-2-one] | < 10 | < 10 | 
N-(3-(5-fluoro-2(3,4,5-trimethoxyphenylamino)pyrimidin-4-yloxy)phenyl)acrylamide [Compound I-148] | 1000 to 10000 | 1000 to 10000 | 
C=CC(=O)N1CCOc2ccc(Nc3ncc(F)c(Nc4ccc5c(c4)CC(=O)N5)n3)cc21 [Compound I-130, 5-(2-(4-acryloyl-3,4-dihydro-2H-benzo[b][1,4]oxazin-6-ylamino)-5-fluoropyrimidin-4-ylamino)indolin-2-one] | < 10 |  | 10 to 100
Cc1cccc(Nc2nc(Nc3cccc(NC(=O)/C=C/CN4CC[C@@H](O)C4)c3)ncc2F)c1 [Compound I-104, (R,E)-N-(3-(5-fluoro-4-(m-tolylamino)pyrimidin-2-ylamino)phenyl)-4-(3-hydroxypyrrolidin-1-yl)but-2-enamide] | < 10 | < 10 | 
C=CC(=O)Nc1cccc(Oc2nc(Nc3cccc(OCC4CCCN(C)C4)c3)ncc2F)c1 (centres unmarked) [Compound I-81, N-(3-(5-fluoro-2-(3-((1-methylpiperidin-3-yl)methoxy)phenylamino)pyrimidin-4-yloxy)phenyl)acrylamide] | < 10 | < 10 | 
C=CC(=O)N(C)Cc1ccc(Oc2nc(Nc3cccc(OCCCS(C)(=O)=O)c3)ncc2F)cc1 [Compound I-136, N-(4-(5-fluoro-2-(3-(3-(methylsulfonyl)propoxy)phenylamino)pyrimidin-4-yloxy)benzyl)-N-methylacrylamide] | < 10 |  | 100 to 1000
C=CC(=O)N(C)Cc1ccc(Oc2nc(Nc3cccc(OCCCN4CCCC4=O)c3)ncc2F)cc1 [Compound I-111, N-(4-(5-fluoro-2-(3-(3-(2-oxopyrrolidin-1-yl)propoxy)phenylamino)pyrimidin-4-yloxy)benzyl)-N-methylacrylamide] | < 10 |  | 100 to 1000
C=CC(=O)Nc1cccc(Nc2nc(Nc3ccc4c(c3)CC(=O)N4)ncc2F)c1 [Compound I-181, N-(3-(5-fluoro-2-(2-oxoindolin-5-ylamino)pyrimidin-4-ylamino)phenyl)acrylamide] | < 10 | < 10 | 
C=CC(=O)N(C)Cc1ccc(Nc2nc(Nc3cccc(OC)c3)ncc2F)cc1 [Compound I-113, N-(4-(5-fluoro-2-(3-methoxyphenylamino)pyrimidin-4-ylamino)benzyl)-N-methylacrylamide] | < 10 |  | 100 to 1000
C/C=C/C(=O)OCc1cccc(Nc2nc(Nc3ccccc3)ncc2C)c1 [Compound I-246, (E)-3-(5-methyl-2-(phenylamino)pyrimidin-4-ylamino) benzyl but-2-enoate] | 10 to 100 | 1000 to 10000 | 
C=CC(=O)Nc1cccc(Nc2nc(Nc3ccc(OCCN4CCCC4=O)cc3)ncc2F)c1 [Compound I-92, N-(3-(5-fluoro-2-(4-(2-(2-oxopyrrolidin-1-yl)ethoxy)phenylamino)pyrimidin-4-ylamino)phenyl)acrylamide] | < 10 |  | 10 to 100
C=CC(=O)N(C)Cc1ccc(Oc2nc(Nc3ccc(OC)nc3)ncc2F)cc1 [Compound I-117, N-(4-(5-fluoro-2-(6-methoxypyridin-3-ylamino)pyrimidin-4-yloxy)benzyl)-N-methylacrylamide] | < 10 | 1000 to 10000 | 
C=CC(=O)Nc1cccc(Nc2nc(Nc3ccc4c(c3)N(C(C)=O)CCO4)ncc2F)c1 [Compound I-112, N-(3-(2-(4-acetyl-2,3-dihydrobenzo[1,4]oxazin-6-yl)amino-5-fluoropyrimidin-4-ylamino)phenyl)acrylamide] | < 10 |  | 10 to 100
C=CC(=O)N1CCOc2ccc(Nc3nc(Nc4ccc(OCCOC)cc4)ncc3F)cc21 [Compound I-141, 1-(6-(5-fluoro-2-(4-(2-methoxyethoxy)phenylamino)pyrimidin-4-ylamino)-2H-benzo[b][1,4]oxazin-4(3H)-yl)prop-2-en-1-one] | < 10 |  | 10 to 100
4-(4-(4-(3-acrylamidophenylamino)-5-fluoropyrimidin-2-ylamino)phenoxy) pyridine [Compound I-346] | < 10 | 100 to 1000 | 
CC(C)=CC(=O)c1ccc(Nc2nc(Nc3ccccc3)ncc2F)cc1 [Compound I-206, 1-(4-(5-fluoro-2-(phenylamino)pyrimidin-4-ylamino)phenyl)-3-methylbut-2-en-1-one] | > 10000 | 1000 to 10000 | 

From patent US9987276B2 (Celgene CAR LLC, priority 2008, dated 2018)
